In paper PMC12491518, “Fabrication of cytotoxic mirror image nanopores” (Nature Communications, 2025):
Where a SMILES comes first, the peptide text is derived from it. [ ]: non-standard residue; d: D form.

Experiments:
[1] = Ion selectivity measurement under asymmetric KCl (reverse potential, Goldman-Hodgkin-Katz); type: biochemical; details: 0.15 M KCl cis / 1 M KCl trans
Protocol: High-resolution electrical recordings for the single-channel characterization were conducted in planar lipid bilayers made up of 1,2-diphytanoyl-sn-glycero-3-phosphocholine (DPhPC, Avanti Polar Lipids)[23],[27],[51]. The lipid bilayer is formed across a polytetrafluoroethylene (Teflon) aperture of ~100 µm in diameter. Teflon is placed between the two sides of the Delrin bilayer chamber, partitioning it into cis and trans compartments (600 µL each). For constructing a solvent-free lipid bilayer, the aperture is made lipophilic by pre-painting both sides with hexadecane in n-pentane (1 μL, 5 mg mL^−1)[51]. After ~10 min, the chambers were filled with buffered electrolytes (1 M KCl, 10 mM HEPES, pH 7.4), and DPhPC in n-pentane (1 μL, 5 mg mL^−1) was added. After ~15 min incubation, the lipid bilayer is formed by raising and lowering the electrolyte solution, bringing the two lipid monolayers together at the aperture. […] Ion selectivity was assessed under asymmetric salt conditions with a KCl concentration gradient across the planar lipid bilayer (0.15 M cis/1 M trans) (SI text)[27]. The ion current was acquired and amplified using an Axopatch 200B amplifier, digitized with Digidata 1550B digitizer, and recorded using the pClamp 11 acquisition software (Molecular Devices, CA). […]

[2] = GUV-based molecular transport assay; type: biochemical; details: 100 mM KCl 10 mM HEPES pH 7.4, mean ± S.D., N = 4 batches
Protocol: The giant unilamellar vesicles (GUVs) were constructed using gel-assisted swelling methodology and labeled with 0.05 mol% ATTO 550 DOPE[27],[44],[61]. Thin lipid films were spread on polyvinyl alcohol (PVA) coated glass slides using 30 µL of a 1 mg/mL solution of DOPC (Cis and Ent lipids prepared separately). […] The successful formation of vesicles was verified in real time by phase-contrast microscopy. To study the transport across DpPorA and DpPorA DE pores, the peptides were added to GUVs (at a concentration of 10–15 µM in 0.1% DDM) along with the fluorescent hydrophilic molecules (namely Alexa Fluor 350 Hydrazide: M.W-349 Da, Alexa Fluor 555 Hydrazide: M.W-1150 Da, ATTO 488 Dextran: M.W-3000 Da)[62]. The uptake of fluorescent molecules was monitored over 40 min, with time-lapse imaging at every minute for the first 10 min and then at every 5 min for the following 30 min, tracking either single vesicles or multiple vesicles within the same field of view. Later on, individual vesicles were further scanned and imaged to obtain datasets for statistical analysis. Control experiments were conducted under identical conditions using vesicles prepared with the same detergent concentration but without peptide incorporation. At each time point, the vesicle images were blank-subtracted, and the intensity inside the vesicle ( Iin ) was normalized against the intensity outside ( Iout )[27]. Complete permeabilization of the vesicles was marked by Iin/Iout ≥ 0.98 for peptide-reconstituted vesicles, while Iin/Iout ≥ 0.95 was considered as the cut-off for permeabilization in the control vesicles.

[3] = DOPC (Cis-DOPC) GUVs, peptide 10 to 15 µM in 0.1% DDM

| Compound | reverse potential (Vm) [1] | percentage of permeabilization, ATTO 488 Dextran [2, 3] | percentage of permeabilization, Alexa Fluor 350 [2, 3] | percentage of permeabilization, Alexa Fluor 555 [2, 3] | percentage of permeabilization, ATTO 488 Dextran ([2]; Ent-DOPC GUVs, 0.1% DDM) | percentage of permeabilization, Alexa Fluor 350 ([2]; Ent-DOPC GUVs, 0.1% DDM) | percentage of permeabilization, Alexa Fluor 555 ([2]; Ent-DOPC GUVs, 0.1% DDM) |
| --- | --- | --- | --- | --- | --- | --- | --- |
| CC[C@@H](C)[C@@H](NC(=O)[C@H](N)CCSC)C(=O)N[C@H](CC(=O)O)C(=O)N[C@H](CCC(N)=O)C(=O)N[C@@H](C(=O)N[C@@H](C(=O)N[C@H](CCC(=O)O)C(=O)N[C@@H](C(=O)N[C@H](Cc1ccccc1)C(=O)NCC(=O)N[C@H](CCC(N)=O)C(=O)N[C@H](CC(C)C)C(=O)NCC(=O)N[C@@H](C(=O)N[C@H](Cc1ccccc1)C(=O)N[C@H](CC(C)C)C(=O)NCC(=O)NCC(=O)N[C@H](Cc1ccccc1)C(=O)NCC(=O)N[C@H](CC(N)=O)C(=O)N[C@@H](C(=O)N[C@H](Cc1ccccc1)C(=O)N[C@H](CCCCN)C(=O)NCC(=O)N[C@H](CC(C)C)C(=O)N[C@H](CCCCN)C(=O)N[C@H](C)C(=O)N[C@@H](C(=O)N[C@@H](C(=O)N[C@H](C)C(=O)N[C@@H](C(=O)N[C@@H](C(=O)N[C@@H](C(=O)N[C@H](CCCCN)C(=O)N[C@H](Cc1c[nH]c2ccccc12)C(=O)N[C@@H](C(=O)N[C@H](C)C(=O)N[C@H](C)C(=O)N[C@H](CCCCN)C(=O)O)[C@H](C)O)C(C)C)[C@H](C)CC)[C@H](C)O)[C@H](C)CC)C(C)C)[C@H](C)CC)[C@H](C)O)[C@H](C)CC)[C@H](C)O)[C@H](C)CC [DpPorA DE] (H-[dM][dI][dD][dQ][dI][dT][dE][dI][dF]G[dQ][dL]G[dT][dF][dL]GG[dF]G[dN][dI][dF][dK]G[dL][dK][dA][dV][dI][dA][dT][dI][dV][dK][dW][dT][dA][dA][dK]-OH; N-terminus and C-terminus assumed) | +40 mV | 53.8 ± 8% | 89.2 ± 3.7% | 71.3 ± 3.5% | – | – | – |
| CC[C@@H](C)[C@@H](NC(=O)[C@H](N)CCSC)C(=O)N[C@H](CC(=O)O)C(=O)N[C@H](CCC(N)=O)C(=O)N[C@@H](C(=O)N[C@@H](C(=O)N[C@H](CCC(=O)O)C(=O)N[C@@H](C(=O)N[C@H](Cc1ccccc1)C(=O)NCC(=O)N[C@H](CCC(N)=O)C(=O)N[C@H](CC(C)C)C(=O)NCC(=O)N[C@@H](C(=O)N[C@H](Cc1ccccc1)C(=O)N[C@H](CC(C)C)C(=O)NCC(=O)NCC(=O)N[C@H](Cc1ccccc1)C(=O)NCC(=O)N[C@H](CC(N)=O)C(=O)N[C@@H](C(=O)N[C@H](Cc1ccccc1)C(=O)N[C@H](CCCCN)C(=O)NCC(=O)N[C@H](CC(C)C)C(=O)N[C@H](CCCCN)C(=O)N[C@H](CC(=O)O)C(=O)N[C@@H](C(=O)N[C@@H](C(=O)N[C@H](CCC(=O)O)C(=O)N[C@@H](C(=O)N[C@@H](C(=O)N[C@@H](C(=O)N[C@H](CCCCN)C(=O)N[C@H](Cc1c[nH]c2ccccc12)C(=O)N[C@@H](C(=O)N[C@H](C)C(=O)N[C@H](C)C(=O)N[C@H](CCCCN)C(=O)O)[C@H](C)O)C(C)C)[C@H](C)CC)[C@H](C)O)[C@H](C)CC)C(C)C)[C@H](C)CC)[C@H](C)O)[C@H](C)CC)[C@H](C)O)[C@H](C)CC [DpPorA] (H-[dM][dI][dD][dQ][dI][dT][dE][dI][dF]G[dQ][dL]G[dT][dF][dL]GG[dF]G[dN][dI][dF][dK]G[dL][dK][dD][dV][dI][dE][dT][dI][dV][dK][dW][dT][dA][dA][dK]-OH; N-terminus and C-terminus assumed) | +21 mV | 73.0 ± 14.1% | 88.9±7.8% | 67.9± 10.4% | 72.70±14.61% | 95.13±3.54% | 70.38±4.93% |
